Test results reported in US20260325542A1, “CANCER TARGETING COMPLEX, AND COMPOSITION COMPRISING SAME FOR PREVENTING OR TREATING CANCER” (EWHA UNIVERSITY - INDUSTRY COLLABORATION FOUNDATION, priority 2023, published 2026).

Test system: 4T1 tumor
Assay: In vivo anticancer efficacy, tumor size in 4T1 cancer animal model
Design: species or system mouse
Method: 5-week-old female Balb/c and Balb/c nu/nu mice were purchased from NaraBio, Inc (Seoul, Republic of Korea). The mice underwent a 2-week acclimatization period before the example. The mice were raised under free-feeding conditions in a breeding room maintained at a temperature of 22±2° C. and humidity of 40-60% during the example. The light and dark cycle was regulated at 12-hour intervals. All examples were conducted in compliance with the relevant laws and institutional guidelines of the KIST Institutional Animal Care and Use Committee (IACUC; Approval No.: 2021-143).
Cancer animal models were prepared by inoculating 1×10^6 4T1 cells into the left thigh of the mice, and raising them until the tumor volume reached 50-80 mm^3.
For the preparation of the control group, the comparison group, and the example group, mice were randomly divided into groups of 5.
The control group was administered saline (10 mg/kg) once every 3 days for 15 days through the tail vein (total 4 administrations). The comparison group was administered ARV-771 (10 mg/kg) once every 3 days for 15 days through the tail vein (total 4 administrations). The example group was administered ECMal-PROTAC 10 mg/kg (wquiv. to ARV-771) of example 1 once every 3 days for 15 days through the tail vein (total 4 administrations).
Tumor size and body weight were measured every two days for the control group, the comparison group, and the example group.

`Cc1ncsc1-c1ccc([C@H](C)NC(=O)[C@@H]2C[C@@H](OC(=O)CCCCn3nnc4c3CCC3C(CC4)C3COC(=O)NCCOCCOCCNC(=O)CCN3C(=O)C=CC3=O)CN2C(=O)[C@@H](NC(=O)COCCCOCCNC(=O)C[C@@H]2N=C(c3ccc(Cl)cc3)c3c(sc(C)c3C)-n3c(C)nnc32)C(C)(C)C)cc1` (some centres unmarked) [ECMal-PROTAC] was tested, and the “cancer size / increase in cancer size” value (10 mg/kg equiv. to ARV-771, 15 days) was “significantly reduced”, the “tumor volume, fold smaller than comparison group” value (10 mg/kg equiv. to ARV-771, after 15 days, vs ARV-771 10 mg/kg) was 5.3 times and the “tumor volume, fold smaller than control group” value (10 mg/kg equiv. to ARV-771, after 15 days, vs saline) was 6.1 times. For the same compound, the “tumor volume after 15 days” value (10 mg/kg equiv. to ARV-771, tail vein, once every 3 days for 15 days) was 176.13±81.62 mm3 and the “tumor size (optical image)” value (excised after 15 days (FIG. 26)) was “much smaller tumor size than the other groups”.
